Experimental data taken from article PMC6148290, “Endogenous metabolites of vitamin E limit inflammation by targeting 5-lipoxygenase” (Nature Communications, 2018).

What was measured:
12-LO = biological target: T1, 12-LO (Homo sapiens, UniProt P18054); assay: 12-LO product formation in A23187/AA-activated PMNL; type: cell-based; conditions: at 3 µM; mean ± s.e.m., n = 3; n.i. no inhibition
T1 construct: 12-HETE (12-LO product from platelets in PMNL preparations); endogenous in cells; host or cells: platelets contaminating human PMNL preparations
T1 sequence (P18054 1-663): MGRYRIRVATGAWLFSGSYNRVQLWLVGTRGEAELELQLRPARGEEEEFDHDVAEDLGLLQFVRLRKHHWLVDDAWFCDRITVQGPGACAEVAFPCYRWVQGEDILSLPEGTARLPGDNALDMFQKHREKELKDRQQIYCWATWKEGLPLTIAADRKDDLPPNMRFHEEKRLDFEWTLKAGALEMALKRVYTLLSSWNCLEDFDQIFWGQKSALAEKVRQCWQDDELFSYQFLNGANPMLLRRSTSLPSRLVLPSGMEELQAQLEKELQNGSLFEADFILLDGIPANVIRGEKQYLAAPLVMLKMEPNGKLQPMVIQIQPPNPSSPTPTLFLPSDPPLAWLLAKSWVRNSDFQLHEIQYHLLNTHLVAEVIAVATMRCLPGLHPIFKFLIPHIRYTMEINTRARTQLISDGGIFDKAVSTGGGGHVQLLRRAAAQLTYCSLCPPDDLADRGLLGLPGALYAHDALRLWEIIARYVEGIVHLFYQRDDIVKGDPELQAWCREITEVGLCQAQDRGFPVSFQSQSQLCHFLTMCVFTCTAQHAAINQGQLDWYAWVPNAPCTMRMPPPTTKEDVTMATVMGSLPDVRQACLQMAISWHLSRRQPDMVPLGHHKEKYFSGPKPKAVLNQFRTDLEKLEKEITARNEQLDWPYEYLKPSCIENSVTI
Method: (§1) Cells were washed and medium was exchanged. Freshly isolated PMNL (1 × 10^7) and stably transfected HEK-293 (1 × 10^6) cells were suspended in PBS pH 7.4 containing 1 mg/ml glucose and 1 mM CaCl2. […] A23187- and A23187/AA-treated PMNL and A23187/AA-treated HEK-293 (5-LO_wt), HEK-293 (5-LO_3W) and HEK-293 (5-LO_Arg101Asp) cells produced 135 ± 21, 636 ± 112, 300 ± 59, 133 ± 29, 55 ± 9 ng 5-LO products, respectively. PMNL synthesized 29 ± 6 ng 12-HETE and 97 ± 23 ng 15-HETE when challenged with A23187/AA. 5-LO products from monocytes were analyzed by UPLC-MS/MS.

5-LO [1] = biological target: T2, 5-LO (Homo sapiens, UniProt P09917); assay: 5-LO product formation in activated PMNL; type: cell-based; set-up: Freshly isolated PMNL (1 × 10^7); endogenous in cells; host or cells: human PMNL freshly isolated from leukocyte concentrates; conditions: cell-based; mean ± s.e.m., n = 3; read-out: IC50, activated PMNL (5-LO)
T2 sequence (P09917 1-674): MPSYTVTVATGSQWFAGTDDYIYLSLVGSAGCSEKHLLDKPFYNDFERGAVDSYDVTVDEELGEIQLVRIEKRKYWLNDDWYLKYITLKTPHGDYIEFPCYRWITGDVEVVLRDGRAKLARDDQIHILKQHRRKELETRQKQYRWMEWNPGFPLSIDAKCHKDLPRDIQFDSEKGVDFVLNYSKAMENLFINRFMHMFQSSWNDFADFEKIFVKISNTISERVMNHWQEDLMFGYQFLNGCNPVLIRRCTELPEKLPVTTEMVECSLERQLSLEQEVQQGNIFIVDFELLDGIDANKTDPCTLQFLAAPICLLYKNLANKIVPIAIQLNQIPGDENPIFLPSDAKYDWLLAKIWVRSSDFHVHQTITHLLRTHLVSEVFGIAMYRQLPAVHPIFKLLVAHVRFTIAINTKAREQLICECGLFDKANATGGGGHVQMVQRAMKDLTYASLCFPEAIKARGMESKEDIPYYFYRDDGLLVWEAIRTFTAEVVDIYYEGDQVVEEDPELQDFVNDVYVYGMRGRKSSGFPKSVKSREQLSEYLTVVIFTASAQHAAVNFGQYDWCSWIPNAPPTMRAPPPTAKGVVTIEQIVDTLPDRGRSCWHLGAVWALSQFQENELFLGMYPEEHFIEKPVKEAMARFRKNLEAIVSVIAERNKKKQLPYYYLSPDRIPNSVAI
From the text: Human PMNL, monocytes, PBMC, and platelets were freshly isolated from leukocyte concentrates. The protocols for experiments with human blood and blood cells were approved by the ethical commission of the Friedrich-Schiller-University Jena. […] PMNL were recovered from the pellet after hypotonic lysis of erythrocytes. Platelets were obtained from the supernatant and washed with PBS pH 5.9/0.9% NaCl (1:1). […]

5-LO [2] = biological target: T2, 5-LO; assay: Activity of purified human recombinant 5-LO (cell-free); type: biochemical; set-up: made in house; host or cells: E. coli Bl21 (DE3)
Method: E. coli Bl21 (DE3) cells were transformed with pT3–5LO plasmid to express human recombinant 5-LO, which was purified by affinity chromatography on an ATP-agarose column. In brief, E. coli was lysed in 50 mM triethanolamine/HCl pH 8.0 plus EDTA (5 mM), soybean trypsin inhibitor (60 µg/ml), phenylmethanesulphonyl fluoride (1 mM), dithiothreitol (1 mM), and lysozyme (1 mg/ml). After sonication (3 × 15 s), the homogenate was centrifuged at 10,000 × g for 15 min and the supernatant again at 40,000 × g for 70 min at 4 °C. The supernatant was applied to an ATP-agarose column (Sigma-Aldrich), and the column was washed with (i) PBS pH 7.4, 1 mM EDTA, (ii) 50 mM phosphate buffer pH 7.4, 0.5 M NaCl, 1 mM EDTA, and (iii) 50 mM phosphate buffer pH 7.4, 1 mM EDTA. 5-LO was eluted with 50 mM phosphate buffer pH 7.4, 1 mM EDTA, 20 mM ATP.
Purified 5-LO (0.5 µg) in PBS pH 7.4 containing EDTA (1 mM) and ATP (1 mM) was pre-incubated with LCMs for 10 min at 4 °C, pre-warmed for 30 s at 37 °C and 5-LO product formation was started by addition of AA (Sigma-Aldrich; 20 µM if not indicated otherwise) plus CaCl2 (2 mM). […] AA was added after incubation for 5 min on ice.

15-LO = 15-LO product formation in A23187/AA-activated PMNL; type: cell-based, human; conditions: at 3 µM; mean ± s.e.m., n = 3; n.i. no inhibition
Method: as §1

[3] = system: peripheral blood mononuclear cells; assay: Cell viability of PBMC (MTT assay); type: cell-based, human; conditions: at 1 and 10 µM (one entry for both); 24 h; n.i. no inhibition
Method: The formazan product was solubilized with SDS (10% in 20 mM HCl), and absorbance was measured at 570 nm using a Multiskan Spectrum microplate reader (Thermo Fisher Scientific).

[4] = cell-free, mean ± s.e.m., n = 3, read-out: IC50, human recombinant 5-LO
[5] = human recombinant 5-LO, read-out: IC50 for 5-LO inhibition

Row | SMILES | 12-LO product formation/PMNL, residual activity (12-LO) | IC50 (5-LO [1]) | IC50 (5-LO [2]; [4]) | 15-LO product formation/PMNL, residual activity (15-LO) | other results
1 | C/C(=C\CC/C(C)=C/CC/C(C)=C/CC[C@]1(C)CCc2c(C)c(O)c(C)c(C)c2O1)CO [2e] | 62.7 ± 15.2 % of control | 270 ± 100 nM | 110 ± 10 nM | 88.0 ± 17.0 % of control | –
2 | Cc1c(O)cc2c(c1C)OC(C)(CCC(=O)O)CC2 (stereo not shown) [6c, 2,7,8-trimethyl-2-(2′-carboxyethyl)-6-hydroxychroman] | 89.9 ± 4.2 % of control | – | – | n.i. | –
3 | C/C(=C\CC/C(C)=C/CC[C@]1(C)CCc2cc(Oc3c(O)cc(C)c4c3CC[C@@](C)(CC/C=C(\C)CC/C=C(\C)CCC=C(CO)CO)O4)c(C)c(C)c2O1)CCC=C(CO)CO [compound 10, (δ,γ)-bi-O-amplexichromanol] | – | – | – | – | IC50 (5-LO [2]; purified human recombinant 5-LO, mean ± s.e.m., n = 3, read-out: IC50 (5-LO)): 400 ± 110 nM
4 | C/C(=C\CC[C@]1(C)CCc2cc(O)cc(C)c2O1)CC/C=C(\C)CCCC(C)C(=O)O (stereo partly shown) [4l] | – | – | – | – | IC50 (5-LO [2]): 170 ± 40 nM
5 | CC(C)=CCC/C(C)=C/CC/C(C)=C/CC[C@]1(C)CCc2cc(O)c(C)c(C)c2O1 [1g] | 70.8 ± 2.3 % of control | 132000 ± 33000 nM | 200 ± 60 nM | n.i. | –
6 | C/C(=C\CC/C(C)=C/CC[C@]1(C)CCc2cc(O)c(C)c(C)c2O1)CCC=C(CO)CO [compound 9] | – | – | – | – | IC50 (5-LO [2]): 110 nM
7 | Cc1c(C)c2c(c(C)c1O)CCC(C)(CCC(=O)O)O2 (stereo not shown) [6a, 2,5,7,8-tetramethyl-2-(2′-carboxyethyl)-6-hydroxychroman] | 87.2 ± 3.6 % of control | – | – | n.i. | –
8 | Cc1cc(O)cc2c1O[C@](C)(CCC[C@H](C)CCC[C@H](C)CCCC(C)C(=O)O)CC2 (stereo partly shown) [4d] | 74.5 ± 5.9 % of control | – | – | 121.6 ± 10.9 % of control | Cell viability/peripheral blood mononuclear cells, residual viability [3]: n.i.
9 | Cc1cc(O)cc2c1OC(C)(CCC(=O)O)CC2 (stereo not shown) [6d, 2,8-dimethyl-2-(2′-carboxyethyl)-6-hydroxychroman] | n.i. | – | – | n.i. | –
10 | C/C(=C\CC/C(C)=C/CC[C@]1(C)CCc2c(C)c(O)cc(C)c2O1)CC/C=C(\C)C(=O)O [4f] | 70.0 ± 14.1 % of control | – | – | 186.1 ± 35.8 % of control | Cell viability/peripheral blood mononuclear cells, residual viability [3]: n.i.
11 | CC(C)=CCC/C(C)=C/CC/C(C)=C/CC[C@]1(C)CCc2c(C)c(O)c(C)c(C)c2O1 [1e] | 88.9 ± 4.9 % of control | 277000 ± 90000 nM | 330 ± 80 nM | n.i. | –
12 | CC(C)=CCC/C(C)=C/CC/C(C)=C/CC[C@]1(C)CCc2c(C)c(O)cc(C)c2O1 [1f] | 65.4 ± 6.1 % of control | 95000 ± 5000 nM | 190 ± 30 nM | n.i. | –
13 | C/C(=C\CC/C(C)=C/CC/C(C)=C/CC[C@]1(C)CCc2c(C)c(O)cc(C)c2O1)CO [2f] | 57.8 ± 13.6 % of control | 380 ± 90 nM | 90 ± 30 nM | 78.9 ± 14.8 % of control | IC50 (5-LO [2]; [5]): < 100 nM
14 | C/C(=C\CC/C(C)=C/CC[C@]1(C)CCc2cc(O)cc(C)c2O1)CCC=C(CO)CO [compound 8] | – | – | – | – | IC50 (5-LO [2]): 150 ± 40 nM
15 | C/C(=C\CC/C(C)=C/CC[C@]1(C)CCc2c(C)c(O)c(C)c(C)c2O1)CC/C=C(\C)C(=O)O [4e] | 72.6 ± 13.6 % of control | – | – | 181.5 ± 26.5 % of control | Cell viability/peripheral blood mononuclear cells, residual viability [3]: n.i.
16 | Cc1c(C)c2c(c(C)c1O)CCC(C)(CCCC(C)C(=O)O)O2 (stereo not drawn) [5a, 3,4-dihydro-6-hydroxy-α,2,5,7,8-pentamethyl-2H-1-benzopyran-2-pentanoic acid] | 56.7 ± 3.0 % of control | – | – | n.i. | IC50 (5-LO [2]; [5]): 750 nM
